Patent US20180235936A1, “CANCER TREATMENT METHODS” (University of Notre Dame du Lac, priority 2017, published 2018)
Entries after “also recorded” stand apart in the source; their conditions may differ.

Key:
microRNA-92a = microRNA-92a expression by RT-PCR in AsPC1 cells co-cultured with GW4869-treated CAFs; assay type: cell-based, human; conditions: PCAFs treated with GW4869 vs DMSO
Excerpt: FIG. 17A illustrates a graph of the results from pancreatic cancer epithelial cells (AsPC1) grown in PCAF-conditioned media; the cells expressed higher levels of microRNA-92a compared to control media, as established via RTPCR.

[1] = tested on: pancreatic cancer epithelial cells; experiment: Direct GW4869 treatment of pancreatic cancer epithelial cells followed by gemcitabine; percent live cells (trypan blue); assay type: cell-based, human; set-up: dose or concentration left out as unconfirmed; conditions: GW4869 for one day then gemcitabine for three days; vs DMSO
Excerpt: FIG. 19 illustrates a graph of the results from pancreatic cancer epithelial cells being treated with DMSO as a control or 2011M GW4869 for one day then treated with gemcitabine for three days. Live and dead cells were quantified using an automated cell counter and trypan blue staining. Percent live cells was quantified.

[2] = tested on: pancreatic epithelial cancer cells (AsPC1) co-cultured with CAFs; experiment: Co-culture of pancreatic epithelial cancer cells with GW4869-treated CAFs, then gemcitabine; live cell count; assay type: cell-based, human; conditions: GW4869-treated CAFs (20 μM), gemcitabine for three days during co-culture
Procedure: (§1) (FIG. 8A) AsPC1 cells were grown for 5 days in AsPC1-conditioned media (AsPC1/AsPC1), CAF1-conditioned media (CAF1/AsPC1) or CAF1-conditioned media depleted of exosomes (CAF1-ED/AsPC1) and then treated with 111M GEM for 3 days and live cells were counted. (FIG. 8B) CAF1s were treated with 20 gm GW4869 or DMSO along with 111M gemcitabine or PBS for 3 days. Exosomes in media were collected, dyed with CFSE, and quantified. (FIG. 8C) AsPC1 cells were co-cultured with AsPC1 cells, CAFs, GW4869-treated CAF1s, DMEM alone (Blank/AsPC1), or GW4869 in DMEM (Blank+GW4869) for 6 days then treated during co-culture with 111M gemcitabine for 3 days. Live co-cultured AsPC1 cells at the bottom of the plate were counted. (FIG. 8D) Snai1 expression was measured via RT-PCR in AsPC1 cells co-cultured with untreated CAFs (CAF-NT/AsPC1) or GW4869-treated CAFs (CAF-GW/AsPC1). (FIG. 8E) L3.6 cells were cultured in CAF1-conditioned (CAF1/L3.6) media or CAF1-conditioned media depleted of exosomes (CAF1-ED/L3.6). miR146a expression was measured via RT-PCR. **p-value<0.01.
The bottom co-cultured epithelial cells were then treated with gemcitabine for three days during co-culture. Live co-cultured epithelial cells at the bottom of the plate were quantified using an automated cell counter. *p-value<0.05; **p-value <0.01. NS (not significant).

[3] = tested on: AsPC1 cells and CAF1 cells tumors; experiment: Subcutaneous AsPC1 + CAF1 tumor growth in NOD/SCID mice; assay type: in vivo; conditions: intraperitoneally twice weekly for two weeks
Procedure: FIGS. 10A-B illustrate graphs of NOD/SCID mice that were subcutaneously implanted with one million AsPC1 cells and 200,000 CAF1 cells. Two weeks post implantation mice were treated intraperitoneally with DMSO+PBS, DMSO+gemcitabine (GEM), or PBS+GW4869 twice weekly for two weeks. (FIG. 10A) Tumor growth over the course of the ten-day post drug treatment. (FIG. 10B) Change in tumor volume from first day of drug treatment to 10 days post initial drug treatment. *p-value<0.05. NS (not significant).
Additionally, it should be appreciated that dosages can be determined as described herein. In one embodiment, the dosage of pharmaceutical composition depends on the drug itself, its efficacy, and its toxicity. As an exemplary embodiment, 2-2.5 gg GW4869 per gram mouse body weight can be intraperitoneally injected into mice twice weekly for two weeks to achieve therapeutic results.

[4] = tested on: pancreatic cancer-associated fibroblasts (CAF1); experiment: Exosome release from CAF1s treated with GW4869, exosomes dyed with CFSE and quantified; assay type: cell-based, human; conditions: CAFs; FIG. 8B / FIG. 12
Procedure: as §1

[5] = tested on: pancreatic cancer epithelial cells; experiment: Scratch migration assay of pancreatic cancer epithelial cells; assay type: cell-based, human; set-up: dose or concentration left out as unconfirmed; conditions: GW4869, serum-free media, three days; vs DMSO
Excerpt: FIG. 20 illustrates a graph of the results from pancreatic cancer epithelial cells being grown to full confluency and placed in serum-free media to prevent cell proliferation. A scratch was made down to center of the plate to create a cell free zone for migration. Cells were then given DMSO as a control or 2011M GW4869. Images were taken each day for three days and distance of cell migration was quantified using ImageJ.

Snai1 mRNA = experiment: Snai1 expression by RT-PCR in AsPC1 cells co-cultured with GW4869-treated CAFs; assay type: cell-based, human; conditions: exosome secretion from PCAFs inhibited by GW4869
Procedure: as §1

[6] = tested on: pancreatic ductal adenocarcinoma (PDAC); conditions: adjuvant gemcitabine, observed cohort; cited from earlier work
[7] = tested on: PCAF extracellular vesicle microRNAs; experiment: MicroRNA-Seq of extracellular vesicles from gemcitabine-treated versus PBS-treated PCAFs; assay type: cell-based, human; conditions: normalized to total RNA
Excerpt: While Snai1 and miR-146a may play an important role in promoting chemoresistance of PECCs, other potential mechanisms exist in which PCAF exosomes may increase chemoresistance. For example, by treating PCAFs with PBS as a control or gemcitabine, collecting their secreted extracellular vesicles, lysing them, collecting the microRNA within, and quantifying the microRNAs, the role of microRNAs is made clearer. […] [table]

PTEN = PTEN expression by RT-PCR in tumors extracted from treated NOD/SCID mice; assay type: in vivo; conditions: intraperitoneally twice weekly for two weeks; compared to control
Procedure: FIG. 16 illustrates a graph of the results from NOD/SCID mice being subcutaneously implanted with one million AsPC1 cells and 200,000 CAF1 cells. Two weeks post implantation mice were treated intraperitoneally with DMSO+PBS, DMSO+gemcitabine, PBS+GW4869, or gemcitabine+GW4869 twice weekly for two weeks. Tumors were extracted for RNA and PTEN expression within tumor samples was quantified via RT-PCR.

[8] = tested on: pancreatic cancer-associated fibroblasts (CAF1); experiment: Exosome secretion from cells during chemotherapy treatment, exosomes isolated from conditioned media and quantified; assay type: cell-based, human; conditions: most prominently from PCAFs; 4 days treatment; vs untreated
Procedure: (FIG. 4A) CAF1s were left untreated (NT) or treated with 111M gem (GT) for 4 days. Exosomes were isolated from conditioned cell media, and protein lysates were used to perform a western blot for CD81 and beta-actin (left). Isolated exosomes were examined for size and structure via transmission electron microscopy (right). (FIG. 4B) CAF1 cells transduced with a GFP-CD63 lentivirus (GFP-CD63-CAF1s) were treated with luM gemcitabine (GT) or left untreated (NT) and fluorescence was analyzed via microscopy. (FIG. 4C) Total corrected cell fluorescence of GFP-CD63-CAF1 cells was quantified using ImageJ. (FIG. 4D) Cells were treated with 11.1M gemcitabine (Fibroblasts and PANC1), 10 nM gemcitabine (L3.6), or left untreated for 4 days (NT), and exosomes were collected and quantified. Scale bar, 200 Em. *pvalue<0.05; **p-value<0.01.
FIG. 5 illustrates a graph of fold change in exosome secretion per cell. CAF1 cells were plated at 500,000 cells/flask and left untreated (control), treated with 111M gemcitabine, or 10 nM Nab-Paclitaxel for 4 days. Live cells were counted. Exosomes were isolated from conditioned-media and quantified. *p-value<0.05;**p-value<0.01.

Snai1 and miR-146a = experiment: RT-PCR of Snai1 and miR-146a in CAF1s and CAF1 exosomes during gemcitabine treatment; assay type: cell-based, human
Procedure: (FIG. 11A) RT-PCR. miR-146a and Snai1 levels were altered in CAF1s during 1 μM GEM treatment (GT) (3 days) compared to untreated control (NT). (FIG. 11B) RT-PCR. CAF1s were treated with Snai1-siRNA, and Snai1 and miR-146a expression was measured compared to negative siRNA control treated CAFs. (FIG. 11C) Exosomes from untreated and 1 μM GEM-treated CAF1s were isolated and Snai1 mRNA and miR-146a within CAF1 exosomes was quantified via RT-PCR using relative Ct values. (FIG. 11D-E) L3.6 cells were treated with GT-CAF1 exosomes for 6 days (GTCAF1/L3.6) or left untreated (L3.6 control). AsPC1 cells were treated with GT-CAF1 exosomes for 6 days (GT-CAF1/AsPC1) or left untreated (AsPC1 control). Snai1 (FIG. 11D) and miR-146a (FIG. 11E) levels were quantified in recipient cells via RT-PCR. *p-value<0.05; **p-value<0.01.

[9] = 1 μM GEM treatment (3 days) vs untreated

Row | Compound | expression of miR-92a within co-cultured PECCs (microRNA-92a) | chemoresistance of PECCs treated directly [1] | chemoresistance of co-cultured PECCs [2] | tumor growth [3] | exosome release [4] | cell migration of PECCs [5] | cellular level of Snai1 mRNA within co-cultured PECCs (Snai1 mRNA) | patients eventually showing tumor recurrence [6] [%] | Fold Change (GEM vs. NT) of hsa-m1R-221-3p in extracellular vesicles [7] | Fold Change (GEM vs. NT) of hsa-miR-21-5p in extracellular vesicles [7] | Fold Change (GEM vs. NT) of hsa-miR-92a-3p in extracellular vesicles [7] | Fold Change (GEM vs. NT) of hsa-miR-181a-5p in extracellular vesicles [7] | Fold Change (GEM vs. NT) of hsa-miR-222-3p in extracellular vesicles [7] | PTEN expression within the tumors (PTEN) | secretion of exosomes from cells [8] | Snai1 level in CAFs (Snai1 and miR-146a; [9]) | miR-146a level in CAFs (Snai1 and miR-146a; [9]) | level of Snai1 mRNA in exosomes secreted from PCAFs (Snai1 and miR-146a; 1 μM GEM-treated vs untreated) | level of miR-146a in exosomes secreted from PCAFs (Snai1 and miR-146a; 1 μM GEM-treated vs untreated)
1 | O=C(/C=C/c1ccc(/C=C/C(=O)Nc2ccc(C3=NCCN3)cc2)cc1)Nc1ccc(C2=NCCN2)cc1 [GW4869] | reduced expression; also recorded: decreased | reduced chemoresistance | reduced the chemoresistance | reduced tumor growth | suppresses exosome release | reduced cell migration | decreased | – | – | – | – | – | – | – | – | – | – | – | –
2 | Nc1ccn([C@@H]2O[C@H](CO)[C@@H](O)C2(F)F)c(=O)n1 [gemcitabine] | – | – | – | – | – | – | – | 74 | 4.325 | 2.531 | 4.66 | 3.509 | 2.649 | decreased | increases secretion of exosomes | upregulation | upregulation | higher | higher
